Article PMC5760531, “Action Potential Recording and Pro-arrhythmia Risk Analysis in Human Ventricular Trabeculae” (Frontiers in Physiology, 2018)
“And” between values parts separate entries of the source, which are not always exact repeats. Equal values may be shown once.

Experiments:
[1] = human free (unbound) effective therapeutic plasma concentration used to calculate multiples; cited from earlier work
hERG = conditions: ref Rampe et al., 1998; Qu and Vargas, 2015; cited from earlier work
[2] = test system: human ventricular trabeculae; experiment: Action potential recording and pro-arrhythmic score analysis in human ventricular trabeculae (hVT);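 also: sharp microelectrode action potential recordings at 37°C in Tyrode-perfused trabeculae, 4 cumulative concentrations each applied 31 min, values averaged over last 30 APs, vehicle 0.1% DMSO as control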
[3] = 1Hz, 1.5-FOLD free ETPC (0.002µM)
[4] = 1Hz, 15-FOLD free ETPC (0.002µM)
[5] = 1Hz, 150-FOLD free ETPC (0.002µM)
[6] = 1Hz, 1500-FOLD free ETPC (0.002µM)
[7] = 2Hz, 1.5-FOLD free ETPC (0.002µM)
[8] = 2Hz, 15-FOLD free ETPC (0.002µM)
[9] = 2Hz, 150-FOLD free ETPC (0.002µM)
[10] = 2Hz, 1500-FOLD free ETPC (0.002µM)
[11] = average raw data, 1Hz, c2-c5: 1.5-, 15-, 150-, 1500-FOLD free ETPC (0.002µM)

O=C1NCCN1CCN1CCC(c2cn(-c3ccc(F)cc3)c3ccc(Cl)cc23)CC1 [SERTINDOLE, Sertindole]
Free ETPC [1]: 0.002 µM | hERG IC50 (hERG): sub-micromolar | AMAX percentage change compared to vehicle control [2, 3]: 5% | APD30 percentage change compared to vehicle control [2, 3]: 6% | APD50 percentage change compared to vehicle control [2, 3]: 6% | APD90 percentage change compared to vehicle control [2, 3]: 5% | Alternans percentage change compared to vehicle control [2, 3]: 54% | Beat Escape percentage change compared to vehicle control [2, 3]: 0% | EADs percentage change compared to vehicle control [2, 3]: 0% | ERP percentage change compared to vehicle control [2, 3]: 1% | Max Dispersion percentage change compared to vehicle control [2, 3]: -15% | RMP percentage change compared to vehicle control [2, 3]: 1% | Refractoriness Escape percentage change compared to vehicle control [2, 3]: 0% | STV percentage change compared to vehicle control [2, 3]: 31% | Triangulation percentage change compared to vehicle control [2, 3]: 4% | AMAX percentage change compared to vehicle control [2, 4]: 5% | APD30 percentage change compared to vehicle control [2, 4]: -1% | APD50 percentage change compared to vehicle control [2, 4]: 0% | APD90 percentage change compared to vehicle control [2, 4]: 0% | Alternans percentage change compared to vehicle control [2, 4]: -5% | Beat Escape percentage change compared to vehicle control [2, 4]: 0% | EADs percentage change compared to vehicle control [2, 4]: 0% | ERP percentage change compared to vehicle control [2, 4]: 3% | Max Dispersion percentage change compared to vehicle control [2, 4]: -35% | RMP percentage change compared to vehicle control [2, 4]: 3% | Refractoriness Escape percentage change compared to vehicle control [2, 4]: 0% | STV percentage change compared to vehicle control [2, 4]: 0% | Triangulation percentage change compared to vehicle control [2, 4]: 3% | AMAX percentage change compared to vehicle control [2, 5]: 5% | APD30 percentage change compared to vehicle control [2, 5]: 4% | APD50 percentage change compared to vehicle control [2, 5]: 6% | APD90 percentage change compared to vehicle control [2, 5]: 7% | Alternans percentage change compared to vehicle control [2, 5]: 31% | Beat Escape percentage change compared to vehicle control [2, 5]: 0% | EADs percentage change compared to vehicle control [2, 5]: 0% | ERP percentage change compared to vehicle control [2, 5]: 7% | Max Dispersion percentage change compared to vehicle control [2, 5]: -3% | RMP percentage change compared to vehicle control [2, 5]: 2% | Refractoriness Escape percentage change compared to vehicle control [2, 5]: 0% | STV percentage change compared to vehicle control [2, 5]: 23% | Triangulation percentage change compared to vehicle control [2, 5]: 12% | AMAX percentage change compared to vehicle control [2, 6]: 4% | APD30 percentage change compared to vehicle control [2, 6]: 1% | APD50 percentage change compared to vehicle control [2, 6]: 6% | APD90 percentage change compared to vehicle control [2, 6]: 8% | Alternans percentage change compared to vehicle control [2, 6]: -12% | Beat Escape percentage change compared to vehicle control [2, 6]: 0% | EADs percentage change compared to vehicle control [2, 6]: 0% | ERP percentage change compared to vehicle control [2, 6]: 13% | Max Dispersion percentage change compared to vehicle control [2, 6]: -30% | RMP percentage change compared to vehicle control [2, 6]: 3% | Refractoriness Escape percentage change compared to vehicle control [2, 6]: 0% | STV percentage change compared to vehicle control [2, 6]: -24% | Triangulation percentage change compared to vehicle control [2, 6]: 19% | AMAX [2, 7]: 109 | AMAX percentage change compared to vehicle control [2, 7]: 3% | APD30 [2, 7]: 104 | APD30 percentage change compared to vehicle control [2, 7]: -1% | APD50 [2, 7]: 139 | APD50 percentage change compared to vehicle control [2, 7]: 0% | APD90 [2, 7]: 197 | APD90 percentage change compared to vehicle control [2, 7]: 0% | Alternans [2, 7]: 1.61 | Alternans percentage change compared to vehicle control [2, 7]: 93% | Beat Escape [2, 7]: 0 | Beat Escape percentage change compared to vehicle control [2, 7]: 0% | EADs [2, 7]: 0 | EADs percentage change compared to vehicle control [2, 7]: 0% | ERP [2, 7]: 0.43 | ERP percentage change compared to vehicle control [2, 7]: 2% | Max Dispersion [2, 7]: 4.87 | Max Dispersion percentage change compared to vehicle control [2, 7]: 7% | RMP [2, 7]: -85 | RMP percentage change compared to vehicle control [2, 7]: 1% | Refractoriness Escape [2, 7]: 0 | Refractoriness Escape percentage change compared to vehicle control [2, 7]: 0% | STV [2, 7]: 1.20 | Triangulation [2, 7]: 93 | Triangulation percentage change compared to vehicle control [2, 7]: 1% | AMAX [2, 8]: 110 | AMAX percentage change compared to vehicle control [2, 8]: 4% | APD30 [2, 8]: 104 | APD30 percentage change compared to vehicle control [2, 8]: -1% | APD50 [2, 8]: 139 | APD50 percentage change compared to vehicle control [2, 8]: 0% | APD90 [2, 8]: 199 | APD90 percentage change compared to vehicle control [2, 8]: 1% | Alternans [2, 8]: 0.69 | Alternans percentage change compared to vehicle control [2, 8]: -17% | Beat Escape [2, 8]: 0 | Beat Escape percentage change compared to vehicle control [2, 8]: 0% | EADs [2, 8]: 0 | EADs percentage change compared to vehicle control [2, 8]: 0% | ERP [2, 8]: 0.44 | ERP percentage change compared to vehicle control [2, 8]: 4% | Max Dispersion [2, 8]: 3.50 | Max Dispersion percentage change compared to vehicle control [2, 8]: -23% | RMP [2, 8]: -87 | RMP percentage change compared to vehicle control [2, 8]: 3% | Refractoriness Escape [2, 8]: 0 | Refractoriness Escape percentage change compared to vehicle control [2, 8]: 0% | STV [2, 8]: 0.48 | Triangulation [2, 8]: 95 | Triangulation percentage change compared to vehicle control [2, 8]: 3% | AMAX [2, 9]: 110 | AMAX percentage change compared to vehicle control [2, 9]: 5% | APD30 [2, 9]: 112 | APD30 percentage change compared to vehicle control [2, 9]: 6% | APD50 [2, 9]: 150 | APD50 percentage change compared to vehicle control [2, 9]: 8% | APD90 [2, 9]: 214 | APD90 percentage change compared to vehicle control [2, 9]: 9% | Alternans percentage change compared to vehicle control [2, 9]: 30% | Beat Escape [2, 9]: 0 | Beat Escape percentage change compared to vehicle control [2, 9]: 0% | EADs [2, 9]: 0 | EADs percentage change compared to vehicle control [2, 9]: 0% | ERP [2, 9]: 0.45 | ERP percentage change compared to vehicle control [2, 9]: 7% | Max Dispersion [2, 9]: 3.78 | Max Dispersion percentage change compared to vehicle control [2, 9]: -17% | RMP [2, 9]: -87 | RMP percentage change compared to vehicle control [2, 9]: 3% | Refractoriness Escape [2, 9]: 0 | Refractoriness Escape percentage change compared to vehicle control [2, 9]: 0% | STV [2, 9]: 0.78 | Triangulation [2, 9]: 103 | Triangulation percentage change compared to vehicle control [2, 9]: 12% | AMAX [2, 10]: 110 | AMAX percentage change compared to vehicle control [2, 10]: 4% | APD30 [2, 10]: 107 | APD30 percentage change compared to vehicle control [2, 10]: 1% | APD50 [2, 10]: 150 | APD50 percentage change compared to vehicle control [2, 10]: 8% | APD90 [2, 10]: 221 | APD90 percentage change compared to vehicle control [2, 10]: 12% | Alternans [2, 10]: 0.59 | Alternans percentage change compared to vehicle control [2, 10]: -29% | Beat Escape [2, 10]: 0 | Beat Escape percentage change compared to vehicle control [2, 10]: 0% | EADs [2, 10]: 0 | EADs percentage change compared to vehicle control [2, 10]: 0% | ERP [2, 10]: 0.48 | ERP percentage change compared to vehicle control [2, 10]: 13% | Max Dispersion [2, 10]: 2.80 | Max Dispersion percentage change compared to vehicle control [2, 10]: -39% | RMP [2, 10]: -87 | RMP percentage change compared to vehicle control [2, 10]: 3% | Refractoriness Escape [2, 10]: 0 | Refractoriness Escape percentage change compared to vehicle control [2, 10]: 0% | STV [2, 10]: 0.42 | Triangulation [2, 10]: 114 | Triangulation percentage change compared to vehicle control [2, 10]: 23% | TdP identification by pro-arrhythmic score ([2]; at 10-fold human free ETPC, score >10 unsafe, <10 safe): TdP negative | AMAX [2, 11]: 112 mV and 111 mV | APD30 [2, 11]: 159 ms and 150 ms and 158 ms and 153 ms | APD50 [2, 11]: 205 ms and 195 ms and 207 ms and 206 ms | APD90 [2, 11]: 272 ms and 261 ms and 279 ms and 282 ms | Alternans [2, 11]: 0.83 and 0.51 and 0.71 and 0.47 | Beat Escape [2, 11]: 0 | EADs [2, 11]: 0 | ERP [2, 11]: 0.41 and 0.42 and 0.44 and 0.46 | Max Dispersion [2, 11]: 3.13 and 2.38 and 3.55 and 2.58 | Refractoriness Escape [2, 11]: 0 | STV [2, 11]: 0.54 and 0.39 and 0.47 and 0.31 | Triangulation [2, 11]: 113 and 111 and 121 and 129
